Experimental data published in patent US6903052B2, “Nematicidal compositions and methods” (Divergence, Inc., priority 2002, dated 2005).

Legend:
[1] = system: C. elegans; assay: Nematicidal activity of single fatty acid methyl ester emulsions against Caenorhabditis elegans (Example 4); format: cell-based
[2] = system: M. incognita; assay: Nematicidal activity of fatty acid methyl ester emulsions against root knot nematode J2 larvae (Example 6); format: cell-based, Meloidogyne incognita; conditions: 0.1% emulsion; 48 hours incubation, counted about 24 hours after transfer to plates
Protocol: Fatty acid methyl ester emulsions were prepared following the teachings of Kim et al (U.S. Pat. No. 5,698,592). Briefly, 1 ml 1% stock solution emulsions were prepared by mixing 10 μl of fatty acid methyl ester with 20 μl of the surfactant Igepal CO 630 in a 1.5 ml eppendorf tube. After careful mixing of fatty acid and Igepal CO 630, 850 μl of ddH20 was added and mixed by gentle pipetting until a homogeneous solution was obtained. Finally, 120 μl of pure isopropanol was added and mixed by gentle pipetting. This stock solution was then used to produce various fatty acid methyl ester dilution emulsions in 24-well plate assays.
(§1) Meloidogyne incognita and javanica were prepared from tomato roots. The roots were bleached and the debris was separated from the J2 larvae and eggs by filtration followed by sucrose density gradient centrifugation. Eggs were hatched over 4 days at 15° C. and the J2 larvae were collected by passage though a filter, followed by centrifugation.
(§2) Nematodes and emulsions were incubated with shaking at room temperature for 48 hours. The contents of each well were transferred to a small spot on individual NGM plates lacking bacteria. About 24 hours after the transfer to plates, worms on and off the inoculation spot were counted as not viable or viable, respectively. Worms were considered viable if they had crawled away from the inoculation spot, or if they were moving. Worms were considered non-viable if they remained at the inoculation spot.

[3] = system: root knot nematodes (Meloidogyne spp.); assay: Nematicidal activity against root knot nematodes, summary statement; format: cell-based; conditions: concentration of 0.1%
Protocol: as §1, §2

[4] = system: tomato seedlings; assay: Phytotoxicity evaluation on tomato seedlings; format: in vivo; conditions: 250 μl of 1% emulsion applied to stem-media interface of two-week seedlings
Protocol: Sterilized tomato seeds were germinated in magenta jars containing Gamborg's agar media. After two weeks of growth, seedlings were treated with 250 μl of 1% fatty acid methyl ester emulsion (nonanoic acid, ricinoleic acid, ricinelaidic acid, oleic acid, or a control emulsion lacking any fatty acid), applied directly to the stem-media interface. Tomato seedlings were scored at various times after application of emulsions.

[5] = system: C. elegans; assay: Nematicidal activity of fatty acid methyl ester emulsions, spectrum (Example 8); format: cell-based, Caenorhabditis elegans; conditions: C. elegans mixed stage
[6] = system: P. trichosuri; assay: as above; format: cell-based, Parastrongyloides trichosuri; conditions: P. trichosuri infective 3rd stage larva
[7] = system: M. incognita; assay: as above; format: cell-based, Meloidogyne incognita; conditions: M. incognita 2nd stage juveniles, scored at 48 hours
Protocol: (§3) Briefly, the indicated fatty acid emulsions were added and rapidly mixed by swirling. Nematode viability was scored by visual observation and motility assays 24 hours following addition of emulsions (48 hours for plant parasitic nematodes Meloidogyne and Heterodera species). The fatty acid emulsions tested were methyl esters of nonanoic (pelargonic) acid, ricinelaidic acid, ricinoleic acid, vernolic acid, linoleic acid, and oleic acid. […] Results shown are mean % values obtained from multiple independent experiments
(§4) The Caenorhabiditis elegans were mixed stage populations. Similar effects seen on several other free-living nematode species. The Parastrongyloides trichosuri (parasite of Australian bushtail possum) were dauer-like infective 3rd stage larva. Similar effects are also seen against free-living stages. The Meloidogyne incognita and Meloidogyne javanica (root knot nematode) were 2nd stage juveniles (dauer-like infective stage). The Heterodera glycines (soybean cyst nematode) were 2nd stage juveniles (dauer-like infective stage). Finally, the Pratylenchus scribneri (corn lesion nematode) were mixed stage populations.

[8] = system: M. javanica; assay: as above; format: cell-based, Meloidogyne javanica; conditions: M. javanica 2nd stage juveniles, scored at 48 hours
Protocol: as §3, §4

[9] = system: H. glycines; assay: as above; format: cell-based, Heterodera glycines; conditions: H. glycines 2nd stage juveniles, scored at 48 hours
[10] = system: P. scribneri; assay: as above; format: cell-based, Pratylenchus scribneri; conditions: P. scribneri mixed stage
[11] = system: free-living, animal parasitic, and plant parasitic nematodes; assay: Nematicidal activity across the spectrum of nematodes, summary statement (Example 8); format: cell-based; conditions: concentrations of 0.1% and 0.01%
Protocol: as §3, §4

[12] = system: C. elegans; assay: Nematicidal activity of emulsions made with cyclodextrins (replacing isopropanol) against C. elegans; format: cell-based, Caenorhabditis elegans; conditions: igepal CO 630 / 2-Hydroxypropyl-β-Cyclodextrin emulsion
From the text: In an effort to increase the bioavailability of fatty acid methyl esters in emulsions, isopropanol was replaced with one of two cyclodextrins (Methyl-β-Cyclodextrin or 2-Hydroxypropyl-β-Cyclodextrin).

[13] = system: B. malayi; assay: Nematicidal activity of tween-based emulsions against microfilarial nematodes; format: cell-based, Brugia malayi
[14] = system: everted hamster jejunal and ileal segments; conditions: Gaginella et al. (1975); cited from earlier work

CCCCCCC(O)C/C=C\CCCCCCCC(=O)OC (stereo not drawn) [Ricinoleic Acid (C18-methyl ester), 12-hydroxy-cis-9-octadecenoic acid methyl ester]
Percentage of Worm Death ([1]; 0.003% emulsion, 1 hr): 60%
Percentage of Worm Death ([1]; 0.003% emulsion, 6 hr): 60%
Percentage of Worm Death ([1]; 0.003% emulsion, 24 hr): 60%
Percentage of Worm Death ([1]; 0.1% emulsion, 1 hr): 90%
Percentage of Worm Death ([1]; 0.1% emulsion, 6 hr): 90%
Percentage of Worm Death ([1]; 0.1% emulsion, 24 hr): 90%
Nematicidal activity (in words) ([1]; concentration of 0.1%): strongly nematicidal
Time before strong killing effects are apparent ([1]; emulsion, C. elegans): up to 30 minutes
M. incognita (% not viable) [2]: 95%
Nematicidal activity (in words) [3]: significant nematicidal activity
Visible effects on tomato seedlings [4]: none of the tomatoes treated with the other fatty acid methyl ester emulsions showed visible effects
% Worm Death (24 hr) ([5]; 0.001% solution): 30%
% Worm Death (24 hr) ([5]; 0.01% solution): 80%
% Worm Death (24 hr) ([5]; 0.1% solution): 100%
% Worm Death (24 hr) ([6]; 0.01% solution): ˜60%
% Worm Death (24 hr) ([6]; 0.1% solution): ˜50%
% Worm Death (24 hr) ([7]; 0.01% solution): 83%
% Worm Death (24 hr) ([7]; 0.1% solution): 95%
% Worm Death (48 hr) ([8]; 0.01% solution): 5%
% Worm Death (48 hr) ([8]; 0.1% solution): 60%
% Worm Death (24 hr) ([9]; 0.001% solution): ˜40%
% Worm Death (24 hr) ([9]; 0.01% solution): ˜60%
% Worm Death (24 hr) ([9]; 0.1% solution): ˜60%
% Worm Death (24 hr) ([10]; 0.01% solution): <20%
% Worm Death (24 hr) ([10]; 0.1% solution): <20%
Nematicidal activity (in words) [11]: strongly nematicidal
% Worm Death (24 hr) ([12]; 0.001% solution): ˜50%
% Worm Death (24 hr) ([12]; 0.01% solution): >80%
% Worm Death (24 hr) ([12]; 0.1% solution): >95%
percentage of non-motile microfilaria ([13]; 24 hrs post-inoculation, 0.0008%): 0%
percentage of non-motile microfilaria ([13]; 24 hrs post-inoculation, 0.0016%): 24.7%
percentage of non-motile microfilaria ([13]; 24 hrs post-inoculation, 0.003%): 100%
percentage of non-motile microfilaria ([13]; 24 hrs post-inoculation, 0.005%): 100%
percentage of non-motile microfilaria ([13]; 24 hrs post-inoculation, 0.0067%): 100%
percentage of non-motile microfilaria ([13]; 24 hrs post-inoculation, 0.008%): 100%
percentage of non-motile microfilaria ([13]; 48 hrs post-inoculation, 0.0008%): 0%
percentage of non-motile microfilaria ([13]; 48 hrs post-inoculation, 0.0016%): 64.2%
percentage of non-motile microfilaria ([13]; 48 hrs post-inoculation, 0.003%): 100%
percentage of non-motile microfilaria ([13]; 48 hrs post-inoculation, 0.005%): 100%
percentage of non-motile microfilaria ([13]; 48 hrs post-inoculation, 0.0067%): 100%
percentage of non-motile microfilaria ([13]; 48 hrs post-inoculation, 0.008%): 100%
Microfilarialcidal activity (in words) ([13]; tween-based emulsions): strong microfilarialcidal activity
Effect on water (and electrolyte) absorption [14]: ineffective at suppressing water absorption
